Results on 8 molecules are retold here after EP0700912A1, “QUINOLONE DERIVATIVE OR SALT THEREOF, AND ANTIBACTERIAL CONTAINING THE SAME” (priority 1993, dated 1994).

In brackets after ≈: the same amount, converted by molar mass.

In series [1] the test system is S.aureus 209P (IFO 12732). In words: Antibacterial activities: minimum inhibitory concentration (standard method of Japan Society of Chemotherapy). The format is cell-based. Particulars: Staphylococcus aureus. The protocol:
(§1) The minimum inhibitory concentration [MIC: µg/mℓ] was measured in accordance with the standard method of Japan Society of Chemotherapy [CHEMOTHERAPY, 29, No.1, 76-79(1981)]. The results are shown in Table 13 in which compound numbers are the same as those synthesized in the above Examples.

In a further series the test system is P.aeruginosa (IFO 3445). The description is as above. Particulars: Pseudomonas aeruginosa, IFO3445. The format is cell-based. The protocol: as §1
In series [2] the test system is E.coli NIH JC-2 (IFO*12734). The series is described as above. Format: cell-based. Particulars: Escherichia coli. The protocol: as §1
Series [3] is described as follows: Photo-toxicity: ear abnormality after intravenous dosing and ultraviolet exposure. Format: in vivo. Particulars: 40 mg/kg/10 mℓ intravenously, female ICR mouse, headed 0 hour; for Number of toxicity-developed cases: ultraviolet rays 320-400 nm, 1.8 mW/cm²/sec, 4 hours; for ranking points: ultraviolet rays 4 hours, 0 = no abnormality, 1 = slight erythema, 2 = medium erythema, 3 = heavy erythema or edema. The protocol:
After 40 mg/kg/10 mℓ of the test compound were administered intravenously to a female ICR mouse (5-6 week old), it was exposed to ultraviolet rays (320-400 nm, 1.8 mW/cm²/sec) for 4 hours. […] The abnormality on the ears was ranked as 0 point in the case of no abnormality, 1 point in the case of slight erythema, 2 points in the case of medium erythema, and 3 points in the case of heavy erythema or edema.

Series [4] is described as follows: Absorption and excretion: recovery in bile after oral administration. The format is in vivo. Particulars: rats with polyethylene tube in choledoch, bile collected over 24 hours. The protocol:
The absorption and excretion of the orallyadministered invention compound were tested by measuring the recovery in urine and that in bile according to the following method.
After the test compound was prepared in a similar manner to the measurement of the recovery in urine, it was orally administered to the rats who had had their choledoch inserted with a polyethylene tube. The bile was collected over 24 hours. The concentration of the test compound in the bile was examined in the similar manner to the above and the excretion rate in the bile for 24 hours was determined.

For orientation: MIC means the smallest concentration in the dilution series that meets the test's criterion for growth inhibition. With `Cl.N[C@H]1CCN(c2cc3c(cc2F)c(=O)c(C(=O)O)cn3-c2ccon2)C1` [Compound No. 4, 7-{3(S)-aminopyrrolidin-1-yl}-6-fluoro-1-(isoxazol-3-yl)-1,4-dihydro-4-oxoquinoline-3-carboxylic acid hydrochloride], the MIC in series [1] worked out at 0.1 µg/mL; with P.aeruginosa (IFO 3445), 0.1 µg/mL; in series [2] it was 0.025 µg/mL. In addition, the “Number of toxicity-developed cases” value in series [3] (first column), in series [3] (second column) and in series [3] (third column) was 0/6 in each case. The ranking points in series [3] (first column), in series [3] (second column) and in series [3] (third column) was 0 in each case.

In the case of `C[C@H]1CN(c2cc3c(cc2F)c(=O)c(C(=O)O)cn3-c2ccon2)C[C@H]1N` [Compound No. 5], the MIC in series [1] stood at 0.1 µg/mL (≈ 0.269 µM); in the series on P.aeruginosa (IFO 3445) it was 0.2 µg/mL (≈ 0.537 µM); in series [2] it was 0.025 µg/mL (≈ 0.0671 µM). The “Number of toxicity-developed cases” value in series [3] (first column), in series [3] (second column) and in series [3] (third column) was 0/6 each time. In addition, the ranking points in series [3] (first column), in series [3] (second column) and in series [3] (third column) was 0 each time. The “Excretion rate (24 hrs, %) in bile” value in series [4] is on record as 1.2%.

For the molecule `CCn1cc(C(=O)O)c(=O)c2cc(F)c(N3CCNCC3)nc21` [Enoxacin, reference compound], the ranking points in series [3] (first column) turned out to be 1.0; in series [3] (second column) it was 0.4; in series [3] (third column) it was 0.3.

For `CCn1cc(C(=O)O)c(=O)c2cc(F)c(N3CCNCC3)cc21` [Norfloxacin, reference compound], the ranking points is reported as 1.0 in series [3] (first column), 1.0 in series [3] (second column) and 0 in series [3] (third column).

In the case of `CC1COc2c(N3CCN(C)CC3)c(F)cc3c(=O)c(C(=O)O)cn1c23` (stereo not shown) [Ofloxacin, reference compound], the values for the MIC (in series [1]; with P.aeruginosa (IFO 3445); in series [2]) were 0.39 µg/mL (≈ 1.08 µM), 1.56 µg/mL (≈ 4.32 µM) and 0.1 µg/mL (≈ 0.277 µM), respectively.

As for `N[C@H]1CCN(c2cc3c(c(Cl)c2F)c(=O)c(C(=O)O)cn3-c2ccon2)C1` [compound 49], the MIC in series [1] was determined as 0.2 µg/mL (≈ 0.509 µM); with P.aeruginosa (IFO 3445), 0.2 µg/mL (≈ 0.509 µM); in series [2], 0.05 µg/mL (≈ 0.127 µM).

As to `Nc1c(F)c(N2CC[C@H](N)C2)cc2c1c(=O)c(C(=O)O)cn2-c1ccon1` [compound 57], the minimal inhibitory concentration (MIC) in series [1] came out at 0.05 µg/mL (≈ 0.134 µM); against P.aeruginosa (IFO 3445) it was 0.1 µg/mL (≈ 0.268 µM); in series [2], 0.013 µg/mL (≈ 0.0348 µM).

On to `C[C@H]1CN(c2cc3c(c(N)c2F)c(=O)c(C(=O)O)cn3-c2ccon2)C[C@H]1N` [compound 58], for which the MIC in series [1] amounted to 0.05 µg/mL (≈ 0.129 µM); against P.aeruginosa (IFO 3445), 0.2 µg/mL (≈ 0.516 µM); in series [2] it was 0.013 µg/mL (≈ 0.0336 µM).
